Laboratory results published in patent publication US10670605B2, “Cysteine reactive probes and uses thereof” (The Scripps Research Institute, priority 2015, dated 2020).
Each block holds one compound with its values, some of them ahead of it.

Experiments:
Assay in all cases: Competitive isoTOP-ABPP, cell lysates
Assay type in all cases: binding
[1] = target: XPO1 C34 (O14980) (Homo sapiens, UniProt O14980); conditions: for isoTOP-ABPP reactivity ratio, O14980_C34: 500 μm; for isoTOP-ABPP ratio, O14980_C34: 500 μM, invitro; for R value (DMSO/fragment): 250 μM, in vitro
Sequence of XPO1 C34 (O14980) (O14980 whole entry, the tested form may be a part): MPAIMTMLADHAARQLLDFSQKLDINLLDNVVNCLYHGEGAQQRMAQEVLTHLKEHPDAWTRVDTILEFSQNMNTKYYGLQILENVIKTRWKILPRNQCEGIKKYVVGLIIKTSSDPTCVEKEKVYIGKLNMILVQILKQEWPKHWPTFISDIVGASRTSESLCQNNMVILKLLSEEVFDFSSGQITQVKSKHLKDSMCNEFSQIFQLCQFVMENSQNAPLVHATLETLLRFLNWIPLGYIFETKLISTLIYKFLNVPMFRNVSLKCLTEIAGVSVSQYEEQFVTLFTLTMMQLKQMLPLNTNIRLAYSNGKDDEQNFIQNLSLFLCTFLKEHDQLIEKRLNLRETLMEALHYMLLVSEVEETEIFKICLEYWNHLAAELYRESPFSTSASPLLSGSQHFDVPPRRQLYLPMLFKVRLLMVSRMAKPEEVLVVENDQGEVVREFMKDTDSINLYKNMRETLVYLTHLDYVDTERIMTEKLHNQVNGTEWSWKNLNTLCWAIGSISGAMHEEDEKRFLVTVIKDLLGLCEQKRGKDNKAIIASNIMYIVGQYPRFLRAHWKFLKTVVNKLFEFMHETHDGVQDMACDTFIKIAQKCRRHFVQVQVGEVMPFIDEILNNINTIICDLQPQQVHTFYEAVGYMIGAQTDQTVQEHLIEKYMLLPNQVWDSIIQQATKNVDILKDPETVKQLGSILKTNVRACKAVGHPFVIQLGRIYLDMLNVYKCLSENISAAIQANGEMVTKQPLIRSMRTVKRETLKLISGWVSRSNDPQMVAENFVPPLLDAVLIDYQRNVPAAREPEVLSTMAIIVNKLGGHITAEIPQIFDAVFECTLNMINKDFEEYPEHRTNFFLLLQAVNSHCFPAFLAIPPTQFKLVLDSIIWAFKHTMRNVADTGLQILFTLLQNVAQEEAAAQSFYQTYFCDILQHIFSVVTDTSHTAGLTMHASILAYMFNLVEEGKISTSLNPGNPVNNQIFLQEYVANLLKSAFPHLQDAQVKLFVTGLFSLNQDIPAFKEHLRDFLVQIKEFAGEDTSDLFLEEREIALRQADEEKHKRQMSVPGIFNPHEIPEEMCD

[2] = target: T1, PDIA6 C55 (Q15084) (Homo sapiens, UniProt Q15084); conditions: for isoTOP-ABPP reactivity ratio, Q15084_C55: 500 μm; for isoTOP-ABPP ratio Q15084_C55: 500 μM, invitro; for R value (DMSO/fragment): 250 μM, in vitro
T1 sequence (Q15084 20-440): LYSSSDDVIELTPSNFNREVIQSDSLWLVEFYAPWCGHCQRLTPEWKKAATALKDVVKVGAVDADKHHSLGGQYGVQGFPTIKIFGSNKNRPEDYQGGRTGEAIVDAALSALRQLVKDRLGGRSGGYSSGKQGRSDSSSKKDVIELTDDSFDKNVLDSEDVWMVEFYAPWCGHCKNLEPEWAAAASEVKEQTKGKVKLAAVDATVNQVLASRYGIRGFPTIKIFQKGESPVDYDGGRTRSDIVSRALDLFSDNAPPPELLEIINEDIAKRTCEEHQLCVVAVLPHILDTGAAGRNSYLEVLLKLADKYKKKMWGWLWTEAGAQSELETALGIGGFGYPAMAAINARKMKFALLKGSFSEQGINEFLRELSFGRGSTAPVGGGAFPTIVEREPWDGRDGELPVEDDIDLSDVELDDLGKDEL

[3] = target: GSTP1 C48 (P09211) (Homo sapiens, UniProt P09211); conditions: for isoTOP-ABPP reactivity ratio, P09211_C48: 500 μm; for isoTOP-ABPP ratio, P09211_C48: 500 μM, invitro; for R value (DMSO/fragment): 250 μM, in vitro
Sequence of GSTP1 C48 (P09211) (P09211 whole entry, the tested form may be a part): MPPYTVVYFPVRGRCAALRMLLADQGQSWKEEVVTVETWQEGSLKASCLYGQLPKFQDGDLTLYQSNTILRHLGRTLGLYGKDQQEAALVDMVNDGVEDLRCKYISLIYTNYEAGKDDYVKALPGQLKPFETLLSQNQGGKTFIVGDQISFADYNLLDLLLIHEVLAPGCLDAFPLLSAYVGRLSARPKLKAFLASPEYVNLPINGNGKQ

[4] = target: SMARCC2 C145 (Q8TAQ2) (Homo sapiens, UniProt Q8TAQ2); conditions: for isoTOP-ABPP reactivity ratio, Q8TAQ2_C145: 500 μm
Sequence of SMARCC2 C145 (Q8TAQ2) (Q8TAQ2 whole entry, the tested form may be a part): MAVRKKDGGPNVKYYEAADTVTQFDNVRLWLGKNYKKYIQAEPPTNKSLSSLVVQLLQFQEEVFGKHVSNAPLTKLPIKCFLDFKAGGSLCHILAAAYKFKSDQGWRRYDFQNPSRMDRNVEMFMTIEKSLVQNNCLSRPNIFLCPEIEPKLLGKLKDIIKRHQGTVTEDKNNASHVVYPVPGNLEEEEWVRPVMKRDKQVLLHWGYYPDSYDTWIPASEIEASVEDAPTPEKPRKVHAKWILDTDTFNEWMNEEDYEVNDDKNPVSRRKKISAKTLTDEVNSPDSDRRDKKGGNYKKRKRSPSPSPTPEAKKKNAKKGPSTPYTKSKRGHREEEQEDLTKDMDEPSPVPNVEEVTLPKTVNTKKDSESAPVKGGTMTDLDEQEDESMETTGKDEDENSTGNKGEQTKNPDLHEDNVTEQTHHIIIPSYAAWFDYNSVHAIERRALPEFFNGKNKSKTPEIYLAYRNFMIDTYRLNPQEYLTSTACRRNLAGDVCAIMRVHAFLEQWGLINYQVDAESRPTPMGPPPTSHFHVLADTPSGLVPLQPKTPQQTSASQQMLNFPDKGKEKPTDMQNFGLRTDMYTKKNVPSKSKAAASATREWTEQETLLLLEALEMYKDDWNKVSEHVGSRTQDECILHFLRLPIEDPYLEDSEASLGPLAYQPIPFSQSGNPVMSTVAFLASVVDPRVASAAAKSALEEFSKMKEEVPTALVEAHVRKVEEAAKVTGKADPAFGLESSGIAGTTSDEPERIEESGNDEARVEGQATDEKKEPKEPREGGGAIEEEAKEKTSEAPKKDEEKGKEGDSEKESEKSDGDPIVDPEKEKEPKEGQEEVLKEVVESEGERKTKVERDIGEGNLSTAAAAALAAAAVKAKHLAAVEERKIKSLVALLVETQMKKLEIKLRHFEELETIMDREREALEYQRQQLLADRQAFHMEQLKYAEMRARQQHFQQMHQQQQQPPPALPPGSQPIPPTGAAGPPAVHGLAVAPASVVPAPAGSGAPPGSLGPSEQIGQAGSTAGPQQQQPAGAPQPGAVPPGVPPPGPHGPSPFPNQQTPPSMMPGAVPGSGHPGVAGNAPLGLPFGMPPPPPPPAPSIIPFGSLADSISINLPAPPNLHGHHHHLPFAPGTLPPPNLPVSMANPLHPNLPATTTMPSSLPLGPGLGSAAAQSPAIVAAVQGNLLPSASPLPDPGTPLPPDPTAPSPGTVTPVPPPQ

[5] = target: T2, PDIA6 C190 (Q15084) (Homo sapiens, UniProt Q15084); conditions: for isoTOP-ABPP reactivity ratio, Q15084_C190: 500 μm; for isoTOP-ABPP ratio, Q15084_C190: 500 μM, invitro; for R value (DMSO/fragment): 250 μM, in vitro
T2 sequence (Q15084 20-440): T1 sequence (Q15084 20-440)

[6] = target: T3, UBE2S C118 (Q16763) (Homo sapiens, UniProt Q16763); conditions: for isoTOP-ABPP reactivity ratio, Q16763_C118: 500 μm
T3 sequence (Q16763 1-222): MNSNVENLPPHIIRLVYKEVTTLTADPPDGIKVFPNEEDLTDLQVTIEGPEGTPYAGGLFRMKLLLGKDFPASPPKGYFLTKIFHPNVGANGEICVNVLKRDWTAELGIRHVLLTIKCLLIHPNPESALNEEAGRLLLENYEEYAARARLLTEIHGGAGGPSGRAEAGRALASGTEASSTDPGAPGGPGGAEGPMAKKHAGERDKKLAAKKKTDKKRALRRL

[7] = target: XPO1 C528 (O14980) (Homo sapiens, UniProt O14980); conditions: for isoTOP-ABPP reactivity ratio, O14980_C528: 500 μm; for R value (DMSO/fragment): 250 μM, in vitro
Sequence of XPO1 C528 (O14980) (O14980 whole entry, the tested form may be a part): as the sequence (O14980 whole entry, the tested form may be a part) above

[8] = target: T4, ACAT1 C126 (P24752) (Homo sapiens, UniProt P24752); conditions: for isoTOP-ABPP ratio, P24752_C126: 500 μM, invitro; for R value (DMSO/fragment): 250 μM, in vitro
T4 sequence (P24752 34-427): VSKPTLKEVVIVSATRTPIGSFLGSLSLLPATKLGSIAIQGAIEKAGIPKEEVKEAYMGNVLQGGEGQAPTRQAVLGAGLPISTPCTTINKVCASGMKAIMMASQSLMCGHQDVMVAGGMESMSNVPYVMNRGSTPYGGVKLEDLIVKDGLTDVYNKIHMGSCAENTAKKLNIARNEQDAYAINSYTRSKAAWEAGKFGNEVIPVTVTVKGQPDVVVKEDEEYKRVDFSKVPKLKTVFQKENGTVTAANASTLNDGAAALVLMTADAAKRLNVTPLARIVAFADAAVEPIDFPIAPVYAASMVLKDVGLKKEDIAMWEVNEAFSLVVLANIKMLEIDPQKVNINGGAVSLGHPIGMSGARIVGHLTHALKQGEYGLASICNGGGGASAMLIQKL

[9] = target: T5, ACAT1 C119 (P24752) (Homo sapiens, UniProt P24752); conditions: for isoTOP-ABPP reactivity ratio, P24752_C119: 500 μm; for isoTOP-ABPP ratio P24752_C119: 500 μM, invitro; for R value (DMSO/fragment): 250 μM, in vitro
T5 sequence (P24752 34-427): T4 sequence (P24752 34-427)

isoTOP-ABPP reactivity ratio, O14980_C34 ([1]; in-vitro_ramos): 0.8
isoTOP-ABPP reactivity ratio, O14980_C34 ([1]; in-vitro_ramos_231): 1.0
isoTOP-ABPP reactivity ratio, Q15084_C55 ([2]; in-vitro_ramos): 1.1
isoTOP-ABPP reactivity ratio, Q15084_C55 ([2]; in-vitro_ramos_231): 1.2
isoTOP-ABPP reactivity ratio, P09211_C48 ([3]; in-vitro_ramos): 1.3
isoTOP-ABPP reactivity ratio, P09211_C48 ([3]; in-vitro_ramos_231): 2.0
isoTOP-ABPP reactivity ratio, Q8TAQ2_C145 ([4]; in-vitro_ramos): 0.9
isoTOP-ABPP reactivity ratio, Q8TAQ2_C145 ([4]; in-vitro_ramos_231): 1.1
isoTOP-ABPP reactivity ratio, Q15084_C190 ([5]; in-vitro_ramos): 1.2
isoTOP-ABPP reactivity ratio, Q15084_C190 ([5]; in-vitro_ramos_231): 1.3
isoTOP-ABPP reactivity ratio, Q16763_C118 ([6]; in-vitro_ramos): 0.8
isoTOP-ABPP reactivity ratio, Q16763_C118 ([6]; in-vitro_ramos_231): 0.9
isoTOP-ABPP reactivity ratio, O14980_C528 ([7]; in-vitro_ramos): 3.2
isoTOP-ABPP reactivity ratio, O14980_C528 ([7]; in-vitro_ramos_231): 5.2
isoTOP-ABPP reactivity ratio, P24752_C126 ([8]; 500 μm, in-vitro_ramos_231): 1.1
isoTOP-ABPP reactivity ratio, P24752_C119 ([9]; in-vitro_ramos): 0.7
isoTOP-ABPP reactivity ratio, P24752_C119 ([9]; in-vitro_ramos_231): 1.3
SMILES: C=CC(=O)N(Cc1cccnc1)c1cc(C(F)(F)F)cc(C(F)(F)F)c1 [compound 31]

isoTOP-ABPP ratio, O14980_C34 [1]; 231: 0.9
isoTOP-ABPP ratio, O14980_C34 ([1]; ramos): 0.7
isoTOP-ABPP ratio Q15084_C55 [2]; 231: 1.9
isoTOP-ABPP ratio Q15084_C55 ([2]; ramos): 1.1
isoTOP-ABPP ratio, P09211_C48 [3]; 231: 1.5
isoTOP-ABPP ratio, P09211_C48 ([3]; ramos): 1.2
isoTOP-ABPP ratio Q8TAQ2_C145 ([4]; 500 μM, invitro, ramos): 0.8
isoTOP-ABPP ratio, Q15084_C190 [5]; 231: 1.5
isoTOP-ABPP ratio, Q15084_C190 ([5]; ramos): 1.3
isoTOP-ABPP ratio, Q16763_C118 ([6]; 500 μM, invitro, ramos): 0.7
isoTOP-ABPP ratio O14980_C528 ([7]; 500 μM, invitro, ramos): 0.5
isoTOP-ABPP ratio, P24752_C126 [8]; 231: 9.6
isoTOP-ABPP ratio, P24752_C126 ([8]; ramos): 20.0
isoTOP-ABPP ratio P24752_C119 [9]; 231: 1.2
isoTOP-ABPP ratio P24752_C119 ([9]; ramos): 0.6
SMILES: O=C(CCl)NCCc1c[nH]c2ccccc12 [compound 13]

R value (DMSO/fragment) ([1]; MDA-MB-231): 1.0
R value (DMSO/fragment) ([1]; Ramos): 0.2
R value (DMSO/fragment) ([2]; MDA-MB-231): 1.3
R value (DMSO/fragment) ([2]; Ramos): 1.2
R value (DMSO/fragment) ([3]; MDA-MB-231): 3.2
R value (DMSO/fragment) ([3]; Ramos): 0.5
R value (DMSO/fragment) ([4]; 250 μM, in vitro, MDA-MB-231): 1.3
R value (DMSO/fragment) ([5]; MDA-MB-231): 1.8
R value (DMSO/fragment) ([5]; Ramos): 1.2
R value (DMSO/fragment) ([6]; 250 μM, in vitro, MDA-MB-231): 1.2
R value (DMSO/fragment) ([7]; MDA-MB-231): 0.9
R value (DMSO/fragment) ([7]; Ramos): 1.1
R value (DMSO/fragment) ([8]; MDA-MB-231): 2.1
R value (DMSO/fragment) ([8]; Ramos): 1.2
R value (DMSO/fragment) ([9]; MDA-MB-231): 1.8
R value (DMSO/fragment) ([9]; Ramos): 0.2
SMILES: COc1ccc(C2CC(c3cccs3)=NN2C(=O)CCl)cc1 (stereo not drawn) [compound 4]

isoTOP-ABPP ratio (reactivity profile), O14980_C34 ([1]; 500 μm in-vitro ramos): 0.9
isoTOP-ABPP ratio (reactivity profile), Q15084_C55 ([2]; 500 μm in-vitro ramos): 0.9
isoTOP-ABPP ratio (reactivity profile), P09211_C48 ([3]; 500 μm in-vitro ramos): 0.9
isoTOP-ABPP ratio (reactivity profile), Q8TAQ2_C145 ([4]; 500 μm in-vitro ramos): 0.9
isoTOP-ABPP ratio (reactivity profile), Q15084_C190 ([5]; 500 μm in-vitro ramos): 0.9
isoTOP-ABPP ratio (reactivity profile), Q16763_C118 ([6]; 500 μm in-vitro ramos): 0.9
isoTOP-ABPP ratio (reactivity profile), O14980_C528 ([7]; 500 μm in-vitro ramos): 0.9
isoTOP-ABPP ratio (reactivity profile), P24752_C126 ([8]; 500 μm in-vitro ramos): 0.9
isoTOP-ABPP ratio (reactivity profile), P24752_C119 ([9]; 500 μm in-vitro ramos): 1.0
SMILES: O=C(/C=C/c1ccccc1)Nc1cc(C(F)(F)F)cc(C(F)(F)F)c1 [compound 26]
